The test system of data set [1] is small cell lung cancer cells DMS114. The data set can be described thus: Tumor cell proliferation, CCK-8 kit. In kind it is cell-based. The conditions noted are these: Homo sapiens, DMS-114, 72 hours. In general terms: Tetrazolium dyes change colour on reduction, which living cells bring about.
For data set [2], the system named is small cell lung cancer cells NCI-H1581. The data set can be described thus: Tumor cell proliferation, CCK-8 kit. The class given is cell-based. The conditions noted are these: Homo sapiens, 72 hours.
The subject of data set [3] is human gastric cancer cells SNU-16. The data set can be described thus: Tumor cell proliferation, CCK-8 kit. In kind it is cell-based. The note with it: SNU-16 cells, 72 hours.
For data set [4], the system named is human gastric cancer cells KATOIII. The data set can be described thus: Tumor cell proliferation, CCK-8 kit. In kind it is cell-based. The conditions noted are these: KATO III, 72 hours.
Data set [5] in a line: Pharmacokinetic tests on rats, intragastric, plasma LC/MS/MS. The class given is in vivo. The conditions noted are these: SD rats; for AUC(0-inf) / half-life / Cmax / MRT: male, rat, plasma, po; for AUC(0-inf): read-out: Curve area AUC0-∞; for half-life: read-out: Half-life period T½ (converted); for Cmax: read-out: Plasma concentration Cmax; for MRT: read-out: Residence time MRT. The method, then: SD rats were used as the test animals, and the compounds of Examples 12 and 17 were administrated intragastrically to the rats to determine the drug concentration in plasma at different points by LC/MS/MS method. The pharmacokinetic properties of the compounds of the present invention in rats were studied.
The compound of Example 12 (3.5 mg) was weighed, dissolved in 2.2 mL of ethanol, vortexed for 1 minute and sonicated for 1 minute, after that, dissolved in 3.3 mL of PEG400, vortexed for 1 minute and sonicated for 1 minute, and then added with 5.5 mL of deionized water, vortexed for 1 minute. The final concentration of the solution was 0.3 mg/mL, and it was a colorless clear liquid (the pH of the final solution was about 7).
The compound of Example 17 (7.12 mg) was weighed and 7.12 mL of 0.5% sodium carboxymethylcellulose (CMC-Na) (0.5% Tween-20, 0.9% BeOH) was added, vortexed for 3 minutes until a homogeneous suspension was formed;
6 healthy adult SD male rats, after an overnight fast, were administrated intragastrically at the dosage of 3 mg/kg and 5 mg/kg, respectively.
Blood samples were taken from laryngeal vein (0.15 mL), at pre administration and at 15 minutes, 30 minutes, 1 hour, 2 hours, 4 hours, 8 hours, 12 hours, 24 hours, 36 hours and 48 hours post administration, and the samples were stored in heparinized test tubes, and centrifuged for 10 minutes at 5500 r/min. The plasma was stored at −30° C., and the rats were fed 4 hours after administration.
20 μL of sample was taken, 400 μl of acetonitrile solution of IS (5 ng·mL^−1 verapamil and 50 ng·mL^−1 glibenclamide were contained) was added, The mixture was vortexed for 1 minute, and then centrifuged for 8 minutes at 13,000r/min. After that, 70 μL of supernatant was added with 70 μL of water and vortexed for 10 minutes, and an aliquot of 10 μL of the supernatant of the mixture was analyzed in a LC-MS/MS system.
The tested compounds were administrated intragastrically to determine the content of the tested compounds in plasma of rats at different time points by LC-MS/MS method.

Data set [6] concerns human bladder transplanted cell carcinoma cell SW780. The data set can be described thus: cells. The note with it: SW780, 72 h, read-out: IC50(nM)/SW780. The text has this: For the FGFR3 subtype, the human bladder transplanted cell carcinoma cell SW780 (purchased from the Chinese Academy of Sciences, Shanghai Institute of Life Sciences, Cell Resource Center) was used, and cultivated according to the corresponding conditions.
The experimental assay can be briefly described as follows: the tested compound was first dissolved in DMSO to prepare a stock solution, then it was subjected to gradient dilution with corresponding cell culture medium to prepare a test sample. The final concentration of the compound is in the range of 30 μM to 0.01 nM. The tumor cells in logarithmic growth phase were inoculated into 96-well cell culture plates at appropriate densities, after the cells were incubated overnight under the corresponding conditions, the tested compound samples were added and the cells were cultured for 72 hours. After completion of the culture, a suitable volume of CCK-8 test solution was added to each well and the cells were incubated at 37° C. for 1 to 4 hours. […] The percentage inhibition rate of the compound at each concentration point was calculated by comparing with the absorbance values of the control group, and then non-linear regression analysis was carried out using logarithmic concentration of the compounds-inhibition rates in the GraphPad Prism 5 software, to obtain the IC50 values for inhibiting cell proliferation of the compounds.

For another data set, the target named is FGFR4 (Homo sapiens (Human), UniProt P22455). The conditions noted are these: read-out: IC50(nM) FGFR4; recombinant human FGFR4, ATP at Km.
Chain of FGFR4 (P22455 22-802): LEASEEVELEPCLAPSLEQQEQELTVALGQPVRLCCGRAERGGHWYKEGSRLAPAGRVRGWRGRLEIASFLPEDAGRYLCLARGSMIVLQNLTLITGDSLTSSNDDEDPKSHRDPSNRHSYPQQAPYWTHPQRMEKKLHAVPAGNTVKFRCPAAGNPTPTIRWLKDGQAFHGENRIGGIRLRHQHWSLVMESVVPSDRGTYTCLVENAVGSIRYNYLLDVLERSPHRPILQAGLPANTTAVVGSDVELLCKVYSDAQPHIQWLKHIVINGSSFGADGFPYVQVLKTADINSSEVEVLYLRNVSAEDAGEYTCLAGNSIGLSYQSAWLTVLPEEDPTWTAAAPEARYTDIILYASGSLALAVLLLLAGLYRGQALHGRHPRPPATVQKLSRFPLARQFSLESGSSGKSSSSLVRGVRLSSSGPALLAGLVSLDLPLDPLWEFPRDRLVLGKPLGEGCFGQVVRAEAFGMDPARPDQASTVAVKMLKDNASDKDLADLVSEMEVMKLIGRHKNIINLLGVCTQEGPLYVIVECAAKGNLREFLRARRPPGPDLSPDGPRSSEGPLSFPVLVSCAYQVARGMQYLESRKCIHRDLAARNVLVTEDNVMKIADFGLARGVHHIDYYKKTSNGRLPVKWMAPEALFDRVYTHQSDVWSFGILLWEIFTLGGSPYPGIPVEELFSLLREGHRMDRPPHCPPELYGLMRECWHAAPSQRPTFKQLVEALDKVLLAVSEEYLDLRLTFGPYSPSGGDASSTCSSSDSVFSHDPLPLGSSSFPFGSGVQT
For the next data set, the target named is FGFR3 (Homo sapiens (Human), UniProt P22607). The data set can be described thus: FGFR kinase activity, HTRF KinEASE-TK (TF-FRET). The conditions noted are these: recombinant human FGFR3, ATP at Km. The class given is biochemical.
Chain of FGFR3 (P22607 23-806): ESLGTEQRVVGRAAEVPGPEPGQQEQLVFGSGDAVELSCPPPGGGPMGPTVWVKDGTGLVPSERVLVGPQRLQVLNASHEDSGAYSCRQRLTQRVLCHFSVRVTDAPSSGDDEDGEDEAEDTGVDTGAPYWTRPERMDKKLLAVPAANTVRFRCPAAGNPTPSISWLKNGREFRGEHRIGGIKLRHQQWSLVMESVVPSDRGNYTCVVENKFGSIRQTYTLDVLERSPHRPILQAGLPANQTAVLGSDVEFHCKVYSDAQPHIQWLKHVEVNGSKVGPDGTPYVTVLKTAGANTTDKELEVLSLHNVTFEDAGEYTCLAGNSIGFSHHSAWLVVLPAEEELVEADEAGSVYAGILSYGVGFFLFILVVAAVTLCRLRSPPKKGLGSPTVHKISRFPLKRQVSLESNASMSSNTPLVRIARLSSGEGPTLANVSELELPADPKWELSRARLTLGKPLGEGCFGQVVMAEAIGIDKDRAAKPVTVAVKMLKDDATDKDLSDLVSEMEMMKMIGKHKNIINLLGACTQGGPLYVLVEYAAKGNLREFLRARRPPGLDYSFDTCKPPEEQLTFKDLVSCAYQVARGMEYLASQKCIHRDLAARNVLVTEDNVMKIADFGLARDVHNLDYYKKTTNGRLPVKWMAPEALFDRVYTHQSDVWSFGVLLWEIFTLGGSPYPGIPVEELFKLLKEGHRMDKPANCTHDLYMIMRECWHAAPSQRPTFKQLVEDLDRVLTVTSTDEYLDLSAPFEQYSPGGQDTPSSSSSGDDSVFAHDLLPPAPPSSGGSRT
Data set [7] can be described thus: Pharmacokinetic tests on mice, intragastric, plasma LC/MS/MS. In kind it is in vivo. The note with it: ICR mice, 100 mg/kg. The method, then: ICR mice were used as the test animals, and the compound of Example 1 was administrated intragastrically to mice to determine the drug concentration in plasma at different points by LC/MS/MS method. The pharmacokinetic properties of the compound of the present invention were studied in mice.
The compound of Example 1 (50.12 mg) was weighed, added with 5.012 mL of 0.5% sodium carboxymethylcellulose (CMC-Na) (0.5% Tween-20, 0.9% BeOH), vortexed for 3 minutes until a homogeneous suspension was formed;
9 healthy adult ICR mice, after an overnight fast, were administrated intragastrically at a dosage of 100 mg/kg, at a volume of […].
Blood samples were taken from orbital vein (0.08 mL) at pre administration and at 15 minutes, 30 minutes, 1 hour, 2 hours, 4 hours, 8 hours, 12 hours, 24 hours post administration. The samples were stored in heparinized test tubes and centrifuged for 10 minutes at 5500r/min, The plasma were stored at −30° C., and the mice were fed after 4 hours of administration.
10 μL of sample was taken, 100 μl of acetonitrile solution of IS (5 ng·mL^−1 verapamil and 50 ng·mL^−1 glibenclamide were contained) was added, the mixture was vortexed for 10 minutes and centrifuged for 18 minutes at 3,700r/min, After that, 40 μL of supernatant was added with 120 μL of water and vortexed for 10 minutes, and an aliquot of 10 μL of the supernatant of the mixture was analyzed in a LC-MS/MS system.
The tested compounds were administrated intragastrically to determine the content of the tested compounds in plasma of mice at different time points by LC-MS/MS method.

The text below walks through data of patent publication US10214515B2, “Substituted pyrazoles as inhibitors of fibroblast growth factor receptor” (Zhejiang Hisun Pharmaceutical Co., Ltd., priority 2015, dated 2019).

Read-outs that look alike come from different tables or passages of the source.

Protocol for FGFR4: This assay used Cisbio's HTRF®KinEASE-TK tyrosine kinase kit (Cat. No. 62TK0PEB), through determining the degree of phosphorylation of the biotinylated polypeptide substrate, the determination was carried out by time-resolved fluorescence energy resonance transfer method (TF-FRET).
For detailed assay, please refer to the kit instructions, the experimental procedure was summarized as follows: the compound of the present invention was first dissolved in DMSO, the solution was subjected to gradient dilution with the buffer solution provided in the kit so that the range of the final concentration of the compound to be tested in the reaction system was 10 μM to 0.1 nM, the final concentration of DMSO was 0.1%. The concentration of the tested adenosine triphosphate (ATP) was the pre-determined Km value corresponding to the ATP of each FGFR subtype. […] Subsequently, an antiphosphorylated tyrosine antibody coupled with a compound containing europium-based element and streptavidin coupled with a modified allophycocyanin XL665 were added to the reaction and the mixture was incubated continuously for 1 hour at room temperature.

The half-life is the time in which the quantity being followed falls by half. As usually defined, the MRT is a mean duration of stay, worked out from the concentration-time curve. With `Nc1c(C(=O)c2cc3ccc(F)cc3[nH]2)cnn1-c1ccc2[nH]c(C3CC3)nc2c1` [Example 12, (5-Amino-1-(2-cyclopropyl-1H-benzo[d]imidazol-5-yl)-1H-pyrazol-4-yl)(6-fluoro-1H-indol-2-yl)methanone], the IC50 in [1] is 150 nM. The same compound registered an IC50 in data set [2] of 78 nM. Also, the IC50 in data set [3] amounted to 5 nM. The IC50 in data set [4] worked out at 1.1 nM. Also, the “pharmacokinetic properties (in words)” value in [5] is reported as “good pharmacokinetic properties”. Further, in [5] (3 mg/kg), the AUC(0-inf) came to 80400 ± 24600 ng·h/mL, the half-life was 5.38 ± 0.05 h, the Cmax amounted to 5230 ± 1510 ng/mL and the MRT was found to be 8.18 ± 0.19 h.

Take `CN1CC=C(c2ccc3cc(C(=O)c4cnn(-c5ccc6[nH]c(C7CC7)nc6c5)c4N)[nH]c3c2)CC1` [Example 14, (5-Amino-1-(2-cyclopropyl-1H-benzo[d]imidazol-5-yl)-1H-pyrazol-4-yl)(6-(1-methyl-1,2,3,6-tetrahydropyrid-4-yl)-1H-indol-2-yl)methanone]: the IC50 in [1] came out at 43 nM; in data set [2], 20 nM; in [3] it was 5.6 nM; in data set [4], 4.5 nM.

Regarding `N#Cc1ccc2cc(C(=O)c3cnn(-c4ccc5[nH]c(C6CC6)nc5c4)c3N)[nH]c2c1` [Example 17, 2-(5-Amino-1-(2-cyclopropyl-1H-benzo[d]imidazol-5-yl)-1H-pyrazole-4-carbonyl)-1H-indole-6-carbonitrile], the IC50 in data set [1] is 129 nM. Further, in [2], the IC50 amounted to 61 nM. In data set [6], the IC50 was determined as 106 nM. The IC50 in data set [4] stood at 9.8 nM. Moreover, the “pharmacokinetic properties (in words)” value in [5] was “good pharmacokinetic properties”. Also, in data set [5] (5 mg/kg), the AUC(0-inf) amounted to 10300 ± 3490 ng·h/mL, the half-life is 6.6 ± 3.2 h, the Cmax was 1040 ± 271 ng/mL and the MRT worked out at 9.4 ± 5.2 h.

For `Nc1c(C(=O)c2cc3cc(F)ccc3[nH]2)cnn1-c1ccc2[nH]c(C3CC3)nc2c1` [Example 11, (5-amino-1-(2-cyclopropyl-1H-benzo[d]imidazol-5-yl)-1H-pyrazol-4-yl)(5-fluoro-1H-indol-2-yl)methanone], the IC50 in data set [2] was 119 nM; in data set [4], 15 nM.

On to `CCn1cc(-c2ccc3cc(C(=O)c4cnn(-c5ccc6[nH]c(C7CC7)nc6c5)c4N)[nH]c3c2)cn1` [Example 16, (5-Amino-1-(2-cyclopropyl-1H-benzo[d]imidazol-5-yl)-1H-pyrazol-4-yl)(6-(1-ethyl-1H-pyrazol-4-yl)-1H-indol-2-yl)methanone], for which the IC50 in data set [1] was 56 nM; in data set [2], 40 nM; in data set [6], 56 nM; in data set [4], 11 nM.

On to `COC(=O)c1nc2cc(-n3ncc(C(=O)c4cc5ccccc5[nH]4)c3N)ccc2[nH]1` [Example 7, Methyl 5-(5-amino-4-(1H-indole-2-carbonyl)-1H-pyrazol-1-yl)-1H-benzo[d]imidazole-2-carboxylate], for which the IC50 on FGFR4 was more than 10000 nM; at FGFR3, more than 100 nM.

As for `Nc1c(C(=O)c2cc3ccccc3[nH]2)cnn1-c1ccc2[nH]c(C3CC3)nc2c1` [Example 1, (5-amino-1-(2-cyclopropyl-1H-benzo[d]imidazol-5-yl)-1H-pyrazol-4-yl)(1H-indol-2-yl)methanone], the IC50 in data set [1] is 89 nM; in data set [2], 45 nM; in data set [3], 4 nM; in data set [6], 11 nM; in data set [4], 9 nM. In addition, the “F % (oral availability)” value in data set [7] is listed as 63%. The “pharmacokinetic properties (in words)” value in [7] is reported as “good pharmacokinetic properties”. In addition, in data set [7] (mouse, plasma, po, read-out: Curve area AUC0-t), the AUC(0-t) came out at 150000 ng·h/mL. The Cmax in data set [7] (mouse, plasma, po, read-out: Plasma concentration Cmax) was found to be 17400 ng/mL.
